Legend:
Assay in all cases: relative viability (nuclei count vs DMSO), 5 days (fraction); higher = more cells survive
[1] = tested on: NCI-H3122
Procedure, shortened: (§1)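 Five library-drug doses in √10 steps were combined with a fixed anchor-drug dose, or a single drug was given alone, by pin tool to lung cancer cell lines in 1536-well plates the day after seeding. Nuclei were stained and counted after 5 days. Relative viability is the nuclei count in treated wells over that in vehicle wells, taken as the median of duplicate plates.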

[2] = tested on: EPLC-272H
Procedure, shortened: as §1

[3] = tested on: LCLC-103H
Procedure, shortened: as §1

[4] = tested on: NCI-H2126
Procedure, shortened: as §1

[5] = tested on: SW 1573
Procedure, shortened: as §1

[6] = tested on: NCI-H322M
Procedure, shortened: as §1

[7] = tested on: SK-LU-1
Procedure, shortened: as §1

[8] = tested on: NCI-H1975
Procedure, shortened: as §1

[9] = tested on: NCI-H2085
Procedure, shortened: as §1

[10] = tested on: NCI-H1666
Procedure, shortened: as §1

[11] = tested on: ChaGo-K-1
Procedure, shortened: as §1

[12] = tested on: NCI-H23
Procedure, shortened: as §1

[13] = tested on: LOU-NH91
Procedure, shortened: as §1

[14] = tested on: NCI-H1563
Procedure, shortened: as §1

[15] = tested on: LU99A
Procedure, shortened: as §1

[16] = tested on: HCC-827
Procedure, shortened: as §1

[17] = tested on: HCC-78
Procedure, shortened: as §1

[18] = tested on: EMC-BAC-2
Procedure, shortened: as §1

[19] = tested on: NCI-H2405
Procedure, shortened: as §1

[20] = tested on: LXF-289
Procedure, shortened: as §1

[21] = tested on: RERF-LC-KJ
Procedure, shortened: as §1

`CC1(C)CCC(c2ccc(Cl)cc2)=C(CN2CCN(c3ccc(C(=O)NS(=O)(=O)c4ccc(N[C@H](CCN5CCOCC5)CSc5ccccc5)c(S(=O)(=O)C(F)(F)F)c4)cc3)CC2)C1` [Navitoclax] + CC(C)C[C@H](NC(=O)[C@H](Cc1ccccc1)NC(=O)c1cnccn1)B(O)O [Bortezomib] (partner 0.002 µM) was tested, and the relative viability ([1]; first compound 0.005 µM) was 1.04, the relative viability ([1]; first compound 0.01581 µM) was 1.02 and the relative viability ([1]; first compound 0.05 µM) was 1.04. For the same molecule, the relative viability ([1]; first compound 0.1581 µM) was 1.03, the relative viability ([1]; first compound 0.5 µM) was 1.01 and the relative viability ([2]; first compound 0.005 µM) was 0.925. The relative viability ([2]; first compound 0.1581 µM) was 0.988, the relative viability ([2]; first compound 0.5 µM) was 0.887 and the relative viability ([3]; first compound 0.005 µM) was 1.13. It also gave a relative viability ([3]; first compound 0.01581 µM) of 1.25, a relative viability ([3]; first compound 0.05 µM) of 1.18 and a relative viability ([3]; first compound 0.1581 µM) of 1.15. It also gave a relative viability ([3]; first compound 0.5 µM) of 1.06, a relative viability ([4]; first compound 0.005 µM) of 1.08 and a relative viability ([4]; first compound 0.01581 µM) of 1.12. It also gave a relative viability ([4]; first compound 0.05 µM) of 1.07, a relative viability ([4]; first compound 0.1581 µM) of 1.12 and a relative viability ([4]; first compound 0.5 µM) of 1.15. For the same molecule, the relative viability ([5]; first compound 0.005 µM) was 1.04, the relative viability ([5]; first compound 0.01581 µM) was 1.24 and the relative viability ([5]; first compound 0.05 µM) was 0.895. It also gave a relative viability ([5]; first compound 0.1581 µM) of 0.796, a relative viability ([5]; first compound 0.5 µM) of 1.15 and a relative viability ([6]; first compound 0.005 µM) of 1.21. For the same molecule, the relative viability ([6]; first compound 0.01581 µM) was 1.33, the relative viability ([6]; first compound 0.05 µM) was 1.38 and the relative viability ([6]; first compound 0.1581 µM) was 1.21. It also gave a relative viability ([6]; first compound 0.5 µM) of 1.22, a relative viability ([7]; first compound 0.005 µM) of 1.19 and a relative viability ([7]; first compound 0.01581 µM) of 1.12. For the same molecule, the relative viability ([7]; first compound 0.05 µM) was 0.477, the relative viability ([7]; first compound 0.1581 µM) was 1.09 and the relative viability ([7]; first compound 0.5 µM) was 0.961. For the same molecule, the relative viability ([8]; first compound 0.005 µM) was 0.389, the relative viability ([8]; first compound 0.01581 µM) was 0.354 and the relative viability ([8]; first compound 0.05 µM) was 0.381. The relative viability ([8]; first compound 0.1581 µM) was 0.258, the relative viability ([8]; first compound 0.5 µM) was 0.255 and the relative viability ([9]; first compound 0.005 µM) was 0.977. For the same molecule, the relative viability ([9]; first compound 0.01581 µM) was 1.09, the relative viability ([9]; first compound 0.05 µM) was 0.855 and the relative viability ([9]; first compound 0.1581 µM) was 1.15. For the same molecule, the relative viability ([9]; first compound 0.5 µM) was 0.978, the relative viability ([10]; first compound 0.005 µM) was 0.791 and the relative viability ([10]; first compound 0.01581 µM) was 0.825. The relative viability ([10]; first compound 0.05 µM) was 0.764, the relative viability ([10]; first compound 0.1581 µM) was 0.782 and the relative viability ([10]; first compound 0.5 µM) was 0.805. The relative viability ([11]; first compound 0.005 µM) was 0.907, the relative viability ([11]; first compound 0.01581 µM) was 1.01 and the relative viability ([11]; first compound 0.05 µM) was 0.91. It also gave a relative viability ([11]; first compound 0.1581 µM) of 0.959, a relative viability ([11]; first compound 0.5 µM) of 1.04 and a relative viability ([12]; first compound 0.005 µM) of 0.894. For the same molecule, the relative viability ([12]; first compound 0.01581 µM) was 1.3, the relative viability ([12]; first compound 0.05 µM) was 1.24 and the relative viability ([12]; first compound 0.1581 µM) was 1.02. For the same molecule, the relative viability ([12]; first compound 0.5 µM) was 1.02, the relative viability ([13]; first compound 0.005 µM) was 0.418 and the relative viability ([13]; first compound 0.01581 µM) was 0.485. The relative viability ([13]; first compound 0.05 µM) was 0.391, the relative viability ([13]; first compound 0.1581 µM) was 0.449 and the relative viability ([13]; first compound 0.5 µM) was 0.339. It also gave a relative viability ([14]; first compound 0.005 µM) of 0.83, a relative viability ([14]; first compound 0.01581 µM) of 1 and a relative viability ([14]; first compound 0.05 µM) of 0.748. It also gave a relative viability ([14]; first compound 0.1581 µM) of 1.05, a relative viability ([14]; first compound 0.5 µM) of 1.24 and a relative viability ([15]; first compound 0.005 µM) of 1.08. The relative viability ([15]; first compound 0.01581 µM) was 1.29, the relative viability ([15]; first compound 0.05 µM) was 0.857 and the relative viability ([15]; first compound 0.1581 µM) was 1.15. The relative viability ([15]; first compound 0.5 µM) was 1.32, the relative viability ([16]; first compound 0.005 µM) was 1.02 and the relative viability ([16]; first compound 0.01581 µM) was 1.21. The relative viability ([16]; first compound 0.05 µM) was 0.87, the relative viability ([16]; first compound 0.1581 µM) was 1.08 and the relative viability ([16]; first compound 0.5 µM) was 0.999. The relative viability ([17]; first compound 0.005 µM) was 0.582, the relative viability ([17]; first compound 0.01581 µM) was 0.611 and the relative viability ([17]; first compound 0.05 µM) was 0.404. It also gave a relative viability ([17]; first compound 0.1581 µM) of 0.45, a relative viability ([17]; first compound 0.5 µM) of 0.469 and a relative viability ([18]; first compound 0.005 µM) of 1.04. It also gave a relative viability ([18]; first compound 0.01581 µM) of 1.19, a relative viability ([18]; first compound 0.05 µM) of 1.01 and a relative viability ([18]; first compound 0.1581 µM) of 1.03. The relative viability ([18]; first compound 0.5 µM) was 1.12, the relative viability ([19]; first compound 0.005 µM) was 0.975 and the relative viability ([19]; first compound 0.01581 µM) was 1.09. For the same molecule, the relative viability ([19]; first compound 0.05 µM) was 0.816, the relative viability ([19]; first compound 0.1581 µM) was 0.974 and the relative viability ([19]; first compound 0.5 µM) was 0.906. It also gave a relative viability ([20]; first compound 0.005 µM) of 0.989, a relative viability ([20]; first compound 0.01581 µM) of 1.05 and a relative viability ([20]; first compound 0.05 µM) of 0.928. It also gave a relative viability ([20]; first compound 0.1581 µM) of 0.967, a relative viability ([20]; first compound 0.5 µM) of 0.959 and a relative viability ([21]; first compound 0.005 µM) of 1.07. For the same molecule, the relative viability ([21]; first compound 0.01581 µM) was 1.14, the relative viability ([21]; first compound 0.05 µM) was 1 and the relative viability ([21]; first compound 0.1581 µM) was 1.09. The relative viability ([21]; first compound 0.5 µM) was 1.35.
